Data as given in patent publication EP4786474A1, “CRYSTALLINE FORM OF QUINAZOLINE DERIVATIVE AND PREPARATION METHOD THEREFOR” (Jiangsu Hengrui Pharmaceuticals Co., Ltd., priority 2023, dated 2025).

Tests used:
Assay type in all cases: physicochemical
[1] = DVS (dynamic vapor sorption) hygroscopicity testing
From the text: According to the description of hygroscopicity characteristics and the definition of hygroscopic weight gain in "General Rule 9103, Guidelines for Hygroscopicity Trials for Pharmaceuticals" in the Chinese Pharmacopoeia, Volume IV, 2015 Edition: • deliquescent: sufficient water is absorbed to form a liquid; • extremely hygroscopic: the hygroscopic weight gain is not less than 15%; • hygroscopic: the hygroscopic weight gain is less than 15% but not less than 2%; • slightly hygroscopic: the hygroscopic weight gain is less than 2% but not less than 0.2%; • nonhygroscopic or practically nonhygroscopic: the hygroscopic weight gain is less than 0.2%.
DVS refers to dynamic vapor sorption: The analysis was performed using SMS DVS Advantage; at 25 °C, the humidity was changed as follows: 50%-95%-0%-95%-50%, in steps of 10% (5% for the last step) (specific humidity ranges are shown in corresponding patterns, and those listed here were used in most cases); the criterion was dm/dt being not greater than 0.002%.

[2] = Influencing factor stability study; conditions: for physical and chemical stability: light exposure (4500 Lux), high temperature (40 °C and 60 °C), high humidity (RH 75% and RH 92.5%), 30 days
Experimental: Samples of the crystal forms D, E, and H were spread in open containers and left to stand under light exposure (4500 Lux), high temperature (40 °C and 60 °C), and high humidity (RH 75% and RH 92.5%) conditions for 1 month to investigate their stability.

[3] = Long-term/accelerated stability; conditions: for physical and chemical stability: long-term/accelerated conditions
Experimental: Samples of the crystal forms D, E, and H were left to stand under 25 °C/60% RH and 40 °C/75% RH conditions to investigate their stability: Table 30.

[4] = accelerated experimental conditions, 70% RH
[5] = normal storage conditions, 25 °C and 60% RH

In the case of `C=CC(=O)N1[C@@H]2CC[C@H]1C[C@@H](Oc1ccc3ncnc(Nc4ccc(Oc5ccn6ncnc6c5)c(C)c4F)c3c1)C2` [Crystal form E, 1-(endo-3-((4-((4-([1,2,4]Triazolo[1,5-a]pyridin-7-yloxy)-2-fluoro-3-methylphenyl)amino)quinazolin-6-yl)oxy)-8-azabicyclo[3.2.1]octan-8-yl)prop-2-en-1-one], the hygroscopic weight gain [1, 4] is reported as “about 0.15%”, the “crystal form re-identified after DVS testing” value [1] is reported as “the crystal form did not change” and the hygroscopic weight gain ([1]; extreme conditions, 90% RH) is reported as “about 0.25%”. The hygroscopic weight gain [1, 5] was “about 0.11%”, the Color and appearance ([2]; 40 °C, 1 month) was “White powder” and the Crystal form ([2]; 40 °C, 1 month) was “No change”. For the same compound, the “Purity (%)” value ([2]; 40 °C, 1 month) was 99.3%, the Color and appearance ([2]; 40 °C, 7 days) was “White powder” and the Crystal form ([2]; 40 °C, 7 days) was “No change”. For the same compound, the Color and appearance ([2]; 40 °C, 14 days) was “White powder”, the Crystal form ([2]; 40 °C, 14 days) was “No change” and the Color and appearance ([2]; 60 °C, 1 month) was “White powder”. The Crystal form ([2]; 60 °C, 1 month) was “No change”, the Color and appearance ([2]; 60 °C, 7 days) was “White powder” and the Crystal form ([2]; 60 °C, 7 days) was “No change”. For the same compound, the Color and appearance ([2]; 60 °C, 14 days) was “White powder”, the Crystal form ([2]; 60 °C, 14 days) was “No change” and the Color and appearance ([2]; 75% RH, 1 month) was “White powder”. For the same compound, the Crystal form ([2]; 75% RH, 1 month) was “No change”, the Color and appearance ([2]; 75% RH, 7 days) was “White powder” and the Crystal form ([2]; 75% RH, 7 days) was “No change”. For the same compound, the Color and appearance ([2]; 75% RH, 14 days) was “White powder”, the Crystal form ([2]; 75% RH, 14 days) was “No change” and the Color and appearance ([2]; 92.5% RH, 1 month) was “White powder”. For the same compound, the Crystal form ([2]; 92.5% RH, 1 month) was “No change”, the Color and appearance ([2]; 92.5% RH, 7 days) was “White powder” and the Crystal form ([2]; 92.5% RH, 7 days) was “No change”. For the same compound, the Color and appearance ([2]; 92.5% RH, 14 days) was “White powder”, the Crystal form ([2]; 92.5% RH, 14 days) was “No change” and the Color and appearance ([2]; 4500 Lux, 1 month) was “White powder”. The Crystal form ([2]; 4500 Lux, 1 month) was “No change”, the “Purity (%)” value ([2]; 4500 Lux, 1 month) was 99.4% and the Color and appearance ([2]; 4500 Lux, 7 days) was “White powder”. For the same compound, the Crystal form ([2]; 4500 Lux, 7 days) was “No change”, the Color and appearance ([2]; 4500 Lux, 14 days) was “White powder” and the Crystal form ([2]; 4500 Lux, 14 days) was “No change”. The Color and appearance ([2]; Initial, 0) was “White powder”, the Crystal form ([2]; Initial, 0) was “Crystal form E” and the “physical and chemical stability” value [2] was “Conclusion: Standing under light exposure (4500 Lux), high temperature (40 °C and 60 °C), and high humidity (RH 75% and RH 92.5%) conditions for 30 days, the crystal form E exhibited good physical and chemical stability”. The Color and appearance ([3]; 25 °C/60% RH, 1 month) was “White powder”, the Crystal form ([3]; 25 °C/60% RH, 1 month) was “No change” and the Color and appearance ([3]; 25 °C/60% RH, 2 months) was “White powder”. For the same compound, the Crystal form ([3]; 25 °C/60% RH, 2 months) was “No change”, the Color and appearance ([3]; 25 °C/60% RH, 3 months) was “White powder” and the Crystal form ([3]; 25 °C/60% RH, 3 months) was “No change”. For the same compound, the Color and appearance ([3]; 25 °C/60% RH, 6 months) was “White powder”, the Crystal form ([3]; 25 °C/60% RH, 6 months) was “No change” and the Color and appearance ([3]; 25 °C/60% RH, 14 days) was “White powder”. The Crystal form ([3]; 25 °C/60% RH, 14 days) was “No change”, the Color and appearance ([3]; 40 °C/75% RH, 1 month) was “White powder” and the Crystal form ([3]; 40 °C/75% RH, 1 month) was “No change”. For the same compound, the Color and appearance ([3]; 40 °C/75% RH, 2 months) was “White powder”, the Crystal form ([3]; 40 °C/75% RH, 2 months) was “No change” and the Color and appearance ([3]; 40 °C/75% RH, 3 months) was “White powder”. The Crystal form ([3]; 40 °C/75% RH, 3 months) was “No change”, the Color and appearance ([3]; 40 °C/75% RH, 6 months) was “White powder” and the Crystal form ([3]; 40 °C/75% RH, 6 months) was “No change”. For the same compound, the Color and appearance ([3]; 40 °C/75% RH, 14 days) was “White powder”, the Crystal form ([3]; 40 °C/75% RH, 14 days) was “No change” and the Color and appearance ([3]; Initial, 0) was “White powder”. The Crystal form ([3]; Initial, 0) was “Crystal form E” and the “physical and chemical stability” value [3] was “Conclusion: Under long-term/accelerated conditions, the crystal form E exhibited good physical and chemical stability”.

In the case of `C=CC(=O)N1[C@@H]2CC[C@H]1C[C@@H](Oc1ccc3ncnc(Nc4ccc(Oc5ccn6ncnc6c5)c(C)c4F)c3c1)C2` [Crystal form J, 1-(endo-3-((4-((4-([1,2,4]Triazolo[1,5-a]pyridin-7-yloxy)-2-fluoro-3-methylphenyl)amino)quinazolin-6-yl)oxy)-8-azabicyclo[3.2.1]octan-8-yl)prop-2-en-1-one], the hygroscopic weight gain [1, 4] is reported as “about 2.64%”, the hygroscopic weight gain ([1]; extreme conditions, 90% RH) is reported as “about 8.10%” and the hygroscopic weight gain [1, 5] is reported as “about 2.44%”.

In the case of `C=CC(=O)N1[C@@H]2CC[C@H]1C[C@@H](Oc1ccc3ncnc(Nc4ccc(Oc5ccn6ncnc6c5)c(C)c4F)c3c1)C2` [Crystal form D, 1-(endo-3-((4-((4-([1,2,4]Triazolo[1,5-a]pyridin-7-yloxy)-2-fluoro-3-methylphenyl)amino)quinazolin-6-yl)oxy)-8-azabicyclo[3.2.1]octan-8-yl)prop-2-en-1-one], the hygroscopic weight gain [1, 4] is reported as “about 3.23%”, the “crystal form re-identified after DVS testing” value [1] is reported as “the crystal form did not change” and the hygroscopic weight gain ([1]; extreme conditions, 90% RH) is reported as “about 3.52%”. The hygroscopic weight gain [1, 5] was “about 3.07%”, the Color and appearance ([2]; 40 °C, 1 month) was “White powder” and the Crystal form ([2]; 40 °C, 1 month) was “No change”. For the same compound, the “Purity (%)” value ([2]; 40 °C, 1 month) was 99.0%, the Color and appearance ([2]; 40 °C, 7 days) was “White powder” and the Crystal form ([2]; 40 °C, 7 days) was “No change”. For the same compound, the Color and appearance ([2]; 40 °C, 13 days) was “White powder”, the Crystal form ([2]; 40 °C, 13 days) was “No change” and the “Purity (%)” value ([2]; 40 °C, 13 days) was 99.4%. The Color and appearance ([2]; 60 °C, 1 month) was “White powder”, the Crystal form ([2]; 60 °C, 1 month) was “No change” and the “Purity (%)” value ([2]; 60 °C, 1 month) was 99.2%. The Color and appearance ([2]; 60 °C, 7 days) was “White powder”, the Crystal form ([2]; 60 °C, 7 days) was “No change” and the Color and appearance ([2]; 60 °C, 13 days) was “White powder”. The Crystal form ([2]; 60 °C, 13 days) was “No change”, the “Purity (%)” value ([2]; 60 °C, 13 days) was 99.4% and the Color and appearance ([2]; 75% RH, 1 month) was “White powder”. The Crystal form ([2]; 75% RH, 1 month) was “No change”, the Color and appearance ([2]; 75% RH, 13 days) was “White powder” and the Crystal form ([2]; 75% RH, 13 days) was “No change”. For the same compound, the Color and appearance ([2]; 92.5% RH, 1 month) was “White powder”, the Crystal form ([2]; 92.5% RH, 1 month) was “No change” and the Color and appearance ([2]; 92.5% RH, 13 days) was “White powder”. The Crystal form ([2]; 92.5% RH, 13 days) was “No change”, the Color and appearance ([2]; 4500 Lux, 1 month) was “White powder” and the Crystal form ([2]; 4500 Lux, 1 month) was “No change”. The “Purity (%)” value ([2]; 4500 Lux, 1 month) was 99.2%, the Color and appearance ([2]; 4500 Lux, 7 days) was “White powder” and the Crystal form ([2]; 4500 Lux, 7 days) was “No change”. For the same compound, the “Purity (%)” value ([2]; 4500 Lux, 7 days) was 99.4%, the Color and appearance ([2]; 4500 Lux, 13 days) was “White powder” and the Crystal form ([2]; 4500 Lux, 13 days) was “No change”. The “Purity (%)” value ([2]; 4500 Lux, 13 days) was 99.3%, the Color and appearance ([2]; Initial, 0) was “White powder” and the Crystal form ([2]; Initial, 0) was “Crystal form D”. The “physical and chemical stability” value [2] was “Conclusion: Standing under light exposure (4500 Lux), high temperature (40 °C and 60 °C), and high humidity (RH 75% and RH 92.5%) conditions for 30 days, the crystal form D exhibited good physical and chemical stability”, the Color and appearance ([3]; 25 °C/60% RH, 1 month) was “White powder” and the Crystal form ([3]; 25 °C/60% RH, 1 month) was “No change”. For the same compound, the Color and appearance ([3]; 25 °C/60% RH, 2 months) was “White powder”, the Crystal form ([3]; 25 °C/60% RH, 2 months) was “No change” and the Color and appearance ([3]; 25 °C/60% RH, 3 months) was “White powder”. For the same compound, the Crystal form ([3]; 25 °C/60% RH, 3 months) was “No change”, the Color and appearance ([3]; 25 °C/60% RH, 6 months) was “White powder” and the Crystal form ([3]; 25 °C/60% RH, 6 months) was “No change”. The Color and appearance ([3]; 25 °C/60% RH, 14 days) was “White powder”, the Crystal form ([3]; 25 °C/60% RH, 14 days) was “No change” and the Color and appearance ([3]; 40 °C/75% RH, 1 month) was “White powder”. The Crystal form ([3]; 40 °C/75% RH, 1 month) was “No change”, the Color and appearance ([3]; 40 °C/75% RH, 2 months) was “White powder” and the Crystal form ([3]; 40 °C/75% RH, 2 months) was “No change”. The Color and appearance ([3]; 40 °C/75% RH, 3 months) was “White powder”, the Crystal form ([3]; 40 °C/75% RH, 3 months) was “No change” and the Color and appearance ([3]; 40 °C/75% RH, 6 months) was “White powder”. The Crystal form ([3]; 40 °C/75% RH, 6 months) was “No change”, the Color and appearance ([3]; 40 °C/75% RH, 14 days) was “White powder” and the Crystal form ([3]; 40 °C/75% RH, 14 days) was “No change”. For the same compound, the Color and appearance ([3]; Initial, 0) was “White powder”, the Crystal form ([3]; Initial, 0) was “Crystal form D” and the “physical and chemical stability” value [3] was “Conclusion: Under long-term/accelerated conditions, the crystal form D exhibited good physical and chemical stability”.
